Columns and labels:
[1] = target: T1, hERG channel (Homo sapiens, UniProt Q12809); assay: Manual whole-cell patch clamp on HEK cells stably expressing hERG; assay type: cell-based
T1 construct: expressed in transfected cells
Experimental: The whole-cell patch clamp technique was employed for the experiments. Previously published works detail the methodologies and solutions used for capturing various currents in cardiomyocytes and in HEK cell lines that stably express different K^+ channels. Specifically, the standard bath solution with 5 mM K^+ consisted of 135 mM NaCl, 5 mM KCl, 2 mM CaCl2, 1 mM MgCl2, 10 mM glucose, and 10 mM HEPES, adjusted to pH 7.4 using NaOH. Meanwhile, the bath solution containing 135 mM K^+ was made of 135 mM KCl, 2 mM CaCl2, 1 mM MgCl2, 10 mM glucose, and 10 mM HEPES, with the pH set to 7.4 by adding KOH. All experiments using the patch clamp method were conducted at a controlled room temperature of 22 ± 1 °C.

[2] = tested on: primary mouse hepatocytes (PMH); assay: Nile red staining of PMH from Acly flox/flox mice infected with Cre adenovirus; assay type: cell-based; conditions: 5 µM, 12 h
Experimental: For the Nile Red staining procedure, primary mouse hepatocytes were treated with IOSGK at varying concentrations for a period of 12 h. Subsequently, the cells were fixed with 4% paraformaldehyde (PFA) and stained with Nile Red ([…], Invitrogen, Carlsbad, CA, USA). The intracellular accumulation of lipids was visualized and quantified using a laser scanning confocal microscope (TCS SP8; Leica, Wetzlar, Germany). Male and female Acly^flox/flox mice were used to isolate PMH and infected with adenovirus vectors carrying either Cre or GFP for 24 h.

[3] = Pharmacokinetics study in ICR mice; assay type: in vivo, mouse
Experimental: Pharmacokinetic properties were investigated using ICR mice weighing between 18 and 22 grams. Six mice were assigned into two groups, with three in each group. ISOGK was administered via intragastric and tail vein injections. For both the intravenous and intragastric administration groups, cheek blood samples of approximately 0.05 mL were collected at 5 min, 15 min, 30 min, 1 h, 2 h, 4 h, 6 h, 8 h, and 24 h post-administration. The plasma concentration of compound in the mice was measured using the LC-MS/MS technique. Pharmacokinetic parameters were then analyzed using WinNonlin software.

[4] = target: T2, recombinant ACLY protein (Homo sapiens, UniProt P53396); assay: Surface plasmon resonance (OpenSPR); assay type: binding; conditions: SPR, 1:1 Langmuir model; read-out: equilibrium dissociation constant (KD)
T2 sequence (P53396 1-1101): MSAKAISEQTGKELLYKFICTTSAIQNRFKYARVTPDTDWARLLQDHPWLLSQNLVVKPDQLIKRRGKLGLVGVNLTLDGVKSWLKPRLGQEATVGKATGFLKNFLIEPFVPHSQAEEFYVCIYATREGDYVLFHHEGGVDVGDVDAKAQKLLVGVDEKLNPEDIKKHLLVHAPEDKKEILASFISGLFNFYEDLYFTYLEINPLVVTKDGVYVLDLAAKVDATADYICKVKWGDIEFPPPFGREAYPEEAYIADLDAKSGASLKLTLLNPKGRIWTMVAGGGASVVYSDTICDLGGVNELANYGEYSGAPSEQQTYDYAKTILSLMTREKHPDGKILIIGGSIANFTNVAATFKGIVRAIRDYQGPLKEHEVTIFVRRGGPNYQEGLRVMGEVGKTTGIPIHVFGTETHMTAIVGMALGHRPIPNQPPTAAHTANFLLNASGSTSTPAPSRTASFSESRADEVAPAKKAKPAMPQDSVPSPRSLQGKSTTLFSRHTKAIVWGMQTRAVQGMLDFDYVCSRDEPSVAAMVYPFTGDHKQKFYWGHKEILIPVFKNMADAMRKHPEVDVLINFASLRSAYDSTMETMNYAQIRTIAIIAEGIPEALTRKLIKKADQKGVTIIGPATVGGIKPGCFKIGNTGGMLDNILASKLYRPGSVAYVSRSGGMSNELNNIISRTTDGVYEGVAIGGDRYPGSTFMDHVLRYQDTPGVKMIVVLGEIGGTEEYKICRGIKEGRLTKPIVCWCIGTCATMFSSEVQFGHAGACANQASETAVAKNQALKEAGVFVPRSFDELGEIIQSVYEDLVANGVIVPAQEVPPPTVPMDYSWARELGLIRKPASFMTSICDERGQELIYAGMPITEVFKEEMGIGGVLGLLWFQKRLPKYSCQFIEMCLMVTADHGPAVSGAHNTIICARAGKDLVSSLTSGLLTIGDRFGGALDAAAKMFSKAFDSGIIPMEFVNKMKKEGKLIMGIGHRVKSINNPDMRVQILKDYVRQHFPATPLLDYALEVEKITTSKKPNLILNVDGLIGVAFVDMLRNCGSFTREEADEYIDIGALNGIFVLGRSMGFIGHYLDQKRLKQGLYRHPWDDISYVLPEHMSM
Experimental: The interaction between isoginkgetin and ACLY was examined using an OpenSPR instrument (Nicaya, Canada). The recombinant ACLY protein was immobilized on a carboxyl sensor chip (SEN-AU-100-3-COOH; Nicaya, Canada) via a standard amine coupling method. Isoginkgetin was injected into the running buffer at various concentrations (ranging from 0.5 to 8 μM) at a flow rate of 20 μL/min. The interaction parameter KD was determined using TraceDrawer evaluation software based on the 1:1 Langmuir binding model.

[5] = tested on: HepG2 cells; assay: DiI-LDL uptake assay; assay type: cell-based; conditions: HepG2, irrespective of dose or time
Experimental: HepG2 cells were cultured in 24-well plates and incubated in DMEM supplemented with 2% LPDS and 20 µg/mL DiI-LDL (20614ES76, YEASEN, Shanghai, China) for four h at 37 °C in the dark. Subsequently, the cells were rinsed twice with PBS containing 0.4% albumin and then washed three times with PBS. To quantify the fluorescence, 400 µL of isopropanol was added to each well, and the plates were incubated at room temperature for 20 min with continuous shaking. Subsequently, 200 µL aliquots were analyzed using a SpectraMax M2e Microplate Reader (Molecular Devices) at wavelengths of 520-570 nm, as previously described previously.

T1 sequence (Q12809 whole entry): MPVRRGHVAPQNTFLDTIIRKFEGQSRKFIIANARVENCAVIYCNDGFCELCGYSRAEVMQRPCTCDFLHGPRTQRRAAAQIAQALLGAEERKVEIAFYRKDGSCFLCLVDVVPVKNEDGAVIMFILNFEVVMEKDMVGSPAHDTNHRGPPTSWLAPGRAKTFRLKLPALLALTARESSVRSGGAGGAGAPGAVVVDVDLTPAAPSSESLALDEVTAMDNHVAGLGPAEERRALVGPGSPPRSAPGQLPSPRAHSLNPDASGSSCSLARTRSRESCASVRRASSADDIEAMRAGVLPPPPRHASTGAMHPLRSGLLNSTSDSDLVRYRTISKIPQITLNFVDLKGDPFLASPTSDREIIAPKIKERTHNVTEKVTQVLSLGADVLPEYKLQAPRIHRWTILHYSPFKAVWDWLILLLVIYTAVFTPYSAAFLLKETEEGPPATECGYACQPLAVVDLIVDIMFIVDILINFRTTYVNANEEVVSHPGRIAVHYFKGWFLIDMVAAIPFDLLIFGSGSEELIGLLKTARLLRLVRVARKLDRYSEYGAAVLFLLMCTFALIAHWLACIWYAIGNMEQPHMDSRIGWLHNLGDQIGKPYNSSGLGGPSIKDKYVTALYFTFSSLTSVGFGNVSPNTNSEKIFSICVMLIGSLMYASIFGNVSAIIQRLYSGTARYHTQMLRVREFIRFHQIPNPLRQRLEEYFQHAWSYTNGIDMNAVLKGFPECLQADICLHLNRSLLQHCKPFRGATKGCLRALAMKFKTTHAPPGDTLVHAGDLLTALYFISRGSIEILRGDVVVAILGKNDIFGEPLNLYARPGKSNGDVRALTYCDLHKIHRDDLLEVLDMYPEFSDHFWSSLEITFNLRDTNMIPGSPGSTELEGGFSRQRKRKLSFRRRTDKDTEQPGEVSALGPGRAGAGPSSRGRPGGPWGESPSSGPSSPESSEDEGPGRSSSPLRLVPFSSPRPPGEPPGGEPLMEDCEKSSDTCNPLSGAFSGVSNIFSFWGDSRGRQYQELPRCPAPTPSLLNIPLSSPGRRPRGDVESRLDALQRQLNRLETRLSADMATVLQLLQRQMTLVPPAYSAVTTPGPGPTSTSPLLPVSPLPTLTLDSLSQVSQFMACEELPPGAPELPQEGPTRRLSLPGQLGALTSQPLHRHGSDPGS

## COc1ccc(-c2cc(=O)c3c(O)cc(O)c(-c4cc(-c5cc(=O)c6c(O)cc(O)cc6o5)ccc4OC)c3o2)cc1 [ISOGK, Isoginkgetin]
[1]
  IC50: > 30 µM
[2]
  lipid deposition in PMH when ACLY abrogated or depleted (Nile red): did not further diminish lipid deposition
[3]; intravenous 5 mg/kg
  peak plasma concentration: 710 ng/mL
[3]; mouse, plasma, intravenous 5 mg/kg, read-out: time of peak plasma concentration (converted)
  Tmax: 5 min
[3]; oral 20 mg/kg
  plasma levels after oral administration: almost undetectable
[3]; oral 20 mg/kg vs intravenous 5 mg/kg
  oral bioavailability: low oral bioavailability
[4]
  Kd: 5.1 µM
[5]
  DiI-LDL uptake: no significant effect on LDL uptake

Source: publication PMC11984407, “A natural small molecule isoginkgetin alleviates hypercholesterolemia and atherosclerosis by targeting ACLY” (Theranostics, 2025)
